Data published in US7977361B2, “Nitro-imidazole hypoxia imaging agent” (Siemens Medical Solutions USA, Inc., priority 2007, dated 2011).
“Also recorded” adds a separate entry of the source.

Legend:
[1] = test system: ALM12 mouse normal liver cell lines; test: Cytotoxicity assay (MTT reduction), ALM12 cells; assay type: cell-based; details: ALM12, 0-10000 nM, 24 hours
Method: (§1) Method: The assay is based on the ability of viable cells to reduce 3-[4,5-dimethylthiazol-2-yl]-2,5-diphenyl tetrazolium bromide to colored formazan crystals. Ls174T human colorectal adenocarcinoma, A172 human brain glioblastoma, MRC5 human normal lung fibroblast, and ALM12 mouse normal liver cell lines were selected for this study. Cells were cultured with different concentration of Compound 1 (0, 100, 500, 1000, 5000, 10000 nM) for 24 hours and then incubated with 0.5 mg/ml of 3-[4,5-dimethylthiazol-2-yl]-2,5-diphenyl tetrazolium bromide for 1 hour. Cells were lysed and formazan crystals were dissolved with 2-propanol for 1 hour and the optical density of the resultant colored 2-propanol was measured. The percentages of cell survival were calculated based on the optical densities.

[2] = test system: A172 human brain glioblastoma; test: Cytotoxicity assay (MTT reduction), A172 cells; assay type: cell-based; details: A172, 0-10000 nM, 24 hours
Method: as §1

[3] = test system: Ls174T human colorectal adenocarcinoma; test: Cytotoxicity assay (MTT reduction), Ls174T cells; assay type: cell-based; details: 0-10000 nM, 24 hours
Method: as §1

[4] = test system: MRC5 human normal lung fibroblast; test: Cytotoxicity assay (MTT reduction), MRC5 cells; assay type: cell-based; details: MRC5, 0-10000 nM, 24 hours
Method: as §1

[5] = Plasma and urine pharmacology study of Compound 1 in rats (LC/MS after IV injection); assay type: in vivo; details: rat
Method: (§2) To the samples were added a proportional amount of lysis buffer (about 5 ml/gram tissue) before the tissue was homogenized using a powered homogenizer, 50 μL of lysis buffer was added to the blood and urine samples, followed by briefly vortexing. 200 μl of organ homogenate was sampled into a 1.5 ml Eppendorf tube. All samples were heated at 100° C. for 2 minutes to denature the proteins and then placed in ice for 15 minutes. Then 40 μl of formic acid was added to the organ samples and 20 μl was added to the blood and urine samples. All tubes were vortexed to achieve complete mixing of sample with acid. Samples were then placed on ice for 15 minutes before being centrifuged at 13000 rpm for 15 minutes at 4° C. 30 μl of the supernatant was transferred to an HPLC vial for MSD analysis.
(§3) A standard curve with a wide range of Compound 1 concentrations was prepared using the same method described above for tissue lysate treatment. The corresponding peak of the compound was identified first in the standards. The areas of the peaks were measured and converted into a standard correlation curve for estimation of Compound 1 concentration in the samples. The amount of compound in each sample is expressed as % injected dose/gram tissue (% ID/g tissue).
Method: Compound 1 solution was prepared as described previously. One ml of 10 mM Compound 1 solution was injected intravenously (tail vein) into rats under isofluorane anesthesia. Blood and urine samples were collected before injection and at 15, 30, 60, 90 and 120 minutes after injection. Samples treatments and LC/MS measurement are the same as the mouse samples described in 1A.

[6] = Bio-distribution and bio-stability of Compound 1 in mice (LC/MS of blood, urine and organs after IV injection); assay type: in vivo; details: mouse; for tissue uptake at 30 min: 1 µmol per animal
Method: Method: Compound 1 was dissolved in DMSO to achieve a 100 mM stock solution. This was then diluted with 1× PBS containing 3% Solutol to achieve a concentration of 5 mM. 200 μl of 5 mM Compound 1 solution was injected into the tail vein in mice animals under isofluorane anesthesia. The in vivo uptake was two hours.
Blood and urine samples were collected at 30, 60, 90 and 120 minutes. Samples were immediately placed on ice to prevent compound degradation. After blood and urine sampling were completed at 120 minutes, the mouse was sacrificed by cervical dislocation. The following whole organs were harvested within 30-40 minutes in the following order; lower GI, upper GI, spleen, pancreas, gall bladder, liver, heart, kidneys, lungs, about 0.3 gram of muscle from both legs, about 0.4 gram of skin at the back, the entire brain and about 0.4 gram of fat inside the abdomen.
as §2, §3

- tissue uptake at 30 min ([5]; 10 µmol per animal, IV tail vein 1 ml of 10 mM, urine at 30 minute, read-out: urine level): 5.3 %ID/g
- urine excretion and blood clearance [5]: fast
- urine excretion index (averaged urine % ID/g divided by blood % ID/g at 120 minute) [5]: 36.62
- tissue uptake at 30 min ([5]; whole blood, 10 µmol per animal, IV tail vein 1 ml of 10 mM, blood at 30 minutes, read-out: blood level): 0.67 %ID/g
- tissue uptake at 120 min ([5]; whole blood, 10 µmol per animal, IV tail vein 1 ml of 10 mM, blood at 120 minutes, read-out: blood level): 0.15 %ID/g
- tissue uptake at 30 min ([6]; IV tail vein 200 μl of 5 mM, urine at 30 minutes, read-out: urine level): 95.6 %ID/g
- blood clearance and urine excretion [6]: fast
- urine excretion index (averaged urine % ID/g divided by blood % ID/g at 120 minute) [6]: 88.69
- blood level ([6]; IV tail vein 200 μl of 5 mM, blood at 120 minutes): 0.59%
- levels in gall bladder and GI system ([6]; organs harvested after 120 minutes): low
- tissue uptake at 30 min ([6]; whole blood, IV tail vein 200 μl of 5 mM, blood at 30 minutes, read-out: blood level): 4.1 %ID/g
Compound: O=[N+]([O-])c1nccn1Cc1cn(C(CO)CF)nn1 (stereo not drawn) [Compound 1, 3-Fluoro-2-(4-((2-nitro-1H-imidazol-1-yl)methyl)-1H-1,2,3-triazol-1-yl)propan-1-ol]
- cytotoxicity: numbers of viable cells vs untreated control cells [1]: no difference
- cytotoxicity: numbers of viable cells vs untreated control cells [2]: no cytotoxic effects; also recorded: no difference
- cytotoxicity: numbers of viable cells vs untreated control cells [3]: no cytotoxic effects; also recorded: no difference
- cytotoxicity: numbers of viable cells vs untreated control cells [4]: no cytotoxic effects; also recorded: no difference
